The results in this text go back to ChEMBL document CHEMBL5137027, “Discovery of quinazoline derivatives CZw-124 as a pan-TRK inhibitor with potent anticancer effects in vitro and in vivo” (Eur J Med Chem, 2022).

A value given as a limit tells only on which side of the number the result lay.

What is called IC50 is the midpoint of a concentration-inhibition curve. A word on the half-life: it is the time in which the quantity being followed falls by half.

Data set [1] concerns the target High affinity nerve growth factor receptor (Homo sapiens, UniProt P04629). In words: Inhibition of […] human TRKA (436 to 790 residues) expressed in baculovirus expression system using TK as substrate measured after 30 mins in presence of ATP by HTRF assay. Background: TR-FRET usually uses a lanthanide donor and a delayed reading to cut background.
In data set [2] the test system is KM12. Kind of data set: Antiproliferative activity against human KM12 cells assessed as inhibition of cell growth incubated for 72 hrs by CCK8 assay. It counts as functional, cell-based. To be noted: KM12, 72 h. Background: Formazan colour is commonly taken as a measure of viable cells.
In data set [3] the test system is BaF3. In words: Antiproliferative activity against mouse BaF3 cells harboring TRKA G595R mutant assessed as inhibition of cell growth incubated for 72 hrs by CCK8 assay. In kind it is functional, cell-based. The following applies: BaF3, 72 h.
Data set [4] relates to BaF3. Kind of data set: Antiproliferative activity against mouse BaF3 cells harboring TRKA F589L mutant assessed as inhibition of cell growth incubated for 72 hrs by CCK8 assay. In kind it is functional, cell-based. To be noted: BaF3, 72 h.
The target in data set [5] is High affinity nerve growth factor receptor (Homo sapiens, UniProt P04629, G595R). Kind of data set: Inhibition of TRKA G595R mutant (unknown origin).
Data set [6] can be described thus: Metabolic stability in human liver microsomes assessed as half life at 100 uM incubated for 60 mins under shaking condition in presence of NADPH by LC-MS/MS analysis. In kind it is ADME, Microsome. For orientation: Liver microsomes are a subcellular fraction often used to study metabolism.
Data set [7] is described as follows: Metabolic stability in human microsomes assessed as intrinsic clearance at 100 uM incubated for 60 mins under shaking condition in presence of NADPH by LC-MS/MS analysis. It counts as ADME, Microsome. The following applies: read-out: CLH.
Data set [8] in a line: Metabolic stability in human liver microsomes assessed as compound remaining at 100 uM incubated for 60 mins under shaking condition in presence of NADPH by LC-MS/MS analysis. In kind it is ADME, Microsome. The following applies: read-out: Stability.
Data set [9] is described as follows: Metabolic stability in human liver microsomes assessed as compound remaining at 100 uM incubated for 60 mins under shaking condition in absence of NADPH by LC-MS/MS analysis. In kind it is ADME, Microsome. The following applies: read-out: Stability.
Data set [10] deals with BaF3. In words: Antiproliferative activity against mouse BaF3 cells harboring TRKA G667C mutant assessed as inhibition of cell growth incubated for 72 hrs by CCK8 assay. It counts as functional, cell-based. The following applies: BaF3, 72 h.
The next data set relates to MCF7. In words: Antiproliferative activity against human MCF7 cells assessed as inhibition of cell growth incubated for 72 hrs by CCK8 assay. In kind it is functional, cell-based. The following applies: MCF7, 72 h.
Another data set deals with THLE-2. In words: Antiproliferative activity against human THLE-2 cells assessed as inhibition of cell growth incubated for 72 hrs by CCK8 assay. It counts as functional, cell-based. To be noted: THLE-2, 72 h.
Another data set relates to A549. Kind of data set: Antiproliferative activity against human A549 cells assessed as inhibition of cell growth incubated for 72 hrs by CCK8 assay. It counts as functional, cell-based. The following applies: A549, 72 h.
The nature of data set [11]: Toxicity in nude BALB/c mouse xenografted with human KM12 cells assessed as changes in body weight at 40 mg/kg, po qd measured every 3 days for 14 days. It counts as organism-based. The following applies: in vivo, 336 h, time 14 day.
In data set [12] the test system is KM12. In words: Antitumor activity against human KM12 cells xenografted in nude BALB/c mouse assessed as tumor growth inhibition at 40 mg/kg, po qd measured every 3 days for 14 days. In kind it is functional. The following applies: KM12, 336 h, time 14 day, read-out: TGI.

High affinity nerve growth factor receptor (Homo sapiens, UniProt P04629), sequence (P04629 whole entry, the tested form may be a part): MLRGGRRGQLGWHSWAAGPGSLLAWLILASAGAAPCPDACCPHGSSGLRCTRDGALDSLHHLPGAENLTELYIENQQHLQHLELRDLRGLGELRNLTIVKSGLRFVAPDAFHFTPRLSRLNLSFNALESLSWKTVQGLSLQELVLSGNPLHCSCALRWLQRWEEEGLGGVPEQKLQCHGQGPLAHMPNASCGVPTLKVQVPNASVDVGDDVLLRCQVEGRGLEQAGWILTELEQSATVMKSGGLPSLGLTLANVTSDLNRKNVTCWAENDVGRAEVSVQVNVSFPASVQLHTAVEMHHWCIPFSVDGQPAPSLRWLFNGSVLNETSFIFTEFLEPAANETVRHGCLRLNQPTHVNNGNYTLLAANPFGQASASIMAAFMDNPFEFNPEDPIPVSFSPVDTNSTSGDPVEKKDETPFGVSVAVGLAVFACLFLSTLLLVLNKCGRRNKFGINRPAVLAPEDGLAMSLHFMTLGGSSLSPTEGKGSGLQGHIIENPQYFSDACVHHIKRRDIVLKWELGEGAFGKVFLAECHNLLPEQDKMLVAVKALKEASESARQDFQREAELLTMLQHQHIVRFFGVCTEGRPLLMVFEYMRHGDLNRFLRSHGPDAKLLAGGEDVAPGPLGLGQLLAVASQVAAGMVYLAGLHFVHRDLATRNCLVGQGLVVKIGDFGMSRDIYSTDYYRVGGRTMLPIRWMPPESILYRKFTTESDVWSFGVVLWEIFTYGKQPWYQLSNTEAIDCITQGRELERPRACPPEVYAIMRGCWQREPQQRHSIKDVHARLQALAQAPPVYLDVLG
High affinity nerve growth factor receptor (Homo sapiens, UniProt P04629, G595R), sequence (P04629 33-796 G595R limits assumed): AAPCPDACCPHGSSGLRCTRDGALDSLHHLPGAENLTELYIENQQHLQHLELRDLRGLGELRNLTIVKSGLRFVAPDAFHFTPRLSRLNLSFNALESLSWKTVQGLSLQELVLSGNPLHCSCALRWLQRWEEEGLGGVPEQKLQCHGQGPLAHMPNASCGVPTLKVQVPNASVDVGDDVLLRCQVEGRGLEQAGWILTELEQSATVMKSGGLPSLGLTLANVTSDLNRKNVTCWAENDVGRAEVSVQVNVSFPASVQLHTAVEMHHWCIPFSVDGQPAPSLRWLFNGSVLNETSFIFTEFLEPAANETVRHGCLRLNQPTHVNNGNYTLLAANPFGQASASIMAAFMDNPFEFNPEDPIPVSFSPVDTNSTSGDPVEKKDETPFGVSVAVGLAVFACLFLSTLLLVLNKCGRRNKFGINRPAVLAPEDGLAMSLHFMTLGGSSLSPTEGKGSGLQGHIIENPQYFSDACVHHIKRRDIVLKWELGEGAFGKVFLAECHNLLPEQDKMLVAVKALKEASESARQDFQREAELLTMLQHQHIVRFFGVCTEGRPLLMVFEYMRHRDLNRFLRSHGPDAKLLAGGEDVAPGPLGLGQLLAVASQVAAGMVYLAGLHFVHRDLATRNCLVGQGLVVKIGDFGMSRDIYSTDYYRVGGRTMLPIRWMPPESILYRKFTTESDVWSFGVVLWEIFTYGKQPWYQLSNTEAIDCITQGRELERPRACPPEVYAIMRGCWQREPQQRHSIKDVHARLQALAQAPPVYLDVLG

`Cc1ccc(CNc2nc(Nc3cc(C)[nH]n3)c3ccccc3n2)cc1`: the IC50 in data set [1] came out at 110 nM.

On to `C[C@@H]1CCc2ncc(F)cc2[C@H]2CCCN2c2ccn3ncc(c3n2)C(=O)N1` [SELITRECTINIB], for which the concentration for half-maximal inhibition (IC50) in the data set on KM12 [2] worked out at 2.8 nM; in the data set with BaF3 [3], 18 nM; in the data set on BaF3 [4], 8.2 nM.

Regarding `Cc1cc(Nc2nc(NCc3cc(F)ccc3F)nc3ccccc23)n[nH]1`, the concentration for half-maximal inhibition (IC50) in [1] was determined as 7.5 nM.

The compound `Cc1cc(C(=O)NC(C)(C)C)cc(C#Cc2ccc3c4c(oc3c2)C(C)(C)c2cc(NS(C)(=O)=O)ccc2C4=O)n1` had a 50% inhibitory concentration (IC50) in data set [5] of 3000 nM.

With `Cc1cc(Nc2nc(NCc3ccc(Br)cc3)nc3ccccc23)n[nH]1`, in data set [1], the IC50 stood at 180 nM.

For the compound `Cc1cc(Nc2nc(NCc3ccc(F)cc3F)nc3cc(Cl)ccc23)n[nH]1`, the half-life at 100 µM in data set [6] is 31.9 min. Moreover, in data set [7], the microsomal CLint at 100 µM worked out at 43.5 µL/min/mg. The remaining at 1 h, 100 µM in [8] turned out to be 28.1%; in data set [9], 99.5%.

For the compound `Cc1cc(Nc2nc(NCc3ccc(C(F)(F)F)cc3)nc3ccccc23)n[nH]1`, the IC50 in [1] worked out at 1400 nM.

Regarding `Fc1ccc(CNc2nc(Nc3cc(-c4ccccc4)[nH]n3)c3ccccc3n2)c(F)c1`, in data set [1], the IC50 was 68 nM.

On to `Cc1cc(Nc2nc(NCc3c(F)cccc3F)nc3ccccc23)n[nH]1`, for which the half-maximal inhibitory concentration (IC50) in [1] came to 160 nM.

In the case of `Cc1cc(Nc2nc(NCc3ccc(F)cc3F)nc3ccc(F)cc23)n[nH]1`, the IC50 in data set [1] came to 44 nM.

Consider `Fc1ccc(CNc2nc(Nc3cc(C4CC4)[nH]n3)c3ccc(Br)cc3n2)c(F)c1`, for which, in data set [1], the IC50 came to 150 nM.

With `Cc1cc(Nc2nc(N3CCOCC3)nc3ccc(Cl)cc23)n[nH]1`, in [1], the IC50 worked out at 350 nM.

For the compound `Cc1cc(Nc2nc(NCc3ccc(F)cc3)nc3ccccc23)n[nH]1`, the IC50 in data set [1] is 20 nM.

Turning to `CC(C)Oc1cc(Nc2nc(N[C@@H](C)c3ccc(F)cn3)ncc2Cl)n[nH]1`, the IC50 was determined as 21 nM with KM12 [2], 59 nM in the data set on BaF3 [3], 130 nM in the data set with BaF3 [10] and 20 nM in the data set on BaF3 [4].

`Cc1cc(Nc2nc(NCc3ccc(F)cc3F)nc3cc(C(F)(F)F)ccc23)n[nH]1`: the half-inhibitory concentration (IC50) in data set [1] worked out at 57 nM. For the same compound, in data set [6], the half-life at 100 µM came out at 50.9 min. Further, the microsomal CLint at 100 µM in data set [7] amounted to 27.2 µL/min/mg. Also, the remaining at 1 h, 100 µM came to 43.4% in [8] and 98.3% in data set [9].

As for `Cc1ccc2c(Nc3cc(C)[nH]n3)nc(NCc3ccc(F)cc3F)nc2c1`, the half-life at 100 µM in [6] came to 25.5 min. Moreover, the microsomal CLint at 100 µM in [7] is 54.3 µL/min/mg. In addition, the remaining at 1 h, 100 µM in [8] was determined as 20.2%; in data set [9], 98.1%.

On to `Fc1ccc(CNc2nc(Nc3cc(C4CC4)[nH]n3)c3ccc(C(F)(F)F)cc3n2)c(F)c1`, for which the half-inhibitory concentration (IC50) was 17 nM in [1]; 28 nM in the data set on KM12 [2]; 9100 nM with MCF7; greater than 100000 nM with THLE-2; 1100 nM with BaF3 [3]; 19000 nM in the data set on A549.

`O=C(Nc1cnn2ccc(N3CCC[C@H]3c3cc(F)ccc3F)nc12)N1CC[C@@H](O)C1`: the IC50 with KM12 [2] was 7.1 nM; in the data set with MCF7, greater than 100000 nM; with THLE-2 it was greater than 100000 nM; in the data set with BaF3 [3], 2200 nM; with BaF3 [10], 850 nM; in the data set on BaF3 [4], 260 nM. The IC50 with A549 is greater than 100000 nM. Moreover, in [11], the Activity entry is recorded as “Non-Toxic”. Besides, the inhibition in vivo at 40 mg/kg with KM12 [12] worked out at 78%.

Consider `Fc1ccc(CNc2nc(Nc3cc(C4CC4)[nH]n3)c3ccccc3n2)c(F)c1`, for which, in [1], the half-inhibitory concentration (IC50) came to 4.7 nM. For the same compound, the half-life at 100 µM in data set [6] was found to be 25.8 min. Besides, the microsomal CLint at 100 µM in data set [7] was determined as 53.7 µL/min/mg. Also, the remaining at 1 h, 100 µM in [8] was 19.3%; in data set [9], 104%.

On to `Cc1cc(Nc2nc(NCc3ccc(Cl)cc3)nc3ccccc23)n[nH]1`, for which the IC50 in data set [1] came out at 380 nM.
